Results from PubChem BioAssay (NCI).
Several values for one entry are separate records, joined by “and”; a condition that tells them apart may be missing. Equal values may be shown once.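 In this assay, cells in 96-well plates receive the compound at five concentrations for 48 hours. Endpoints are linearly interpolated between the surrounding concentrations. Here, GI50 denotes the concentration required for 50% inhibition of growth. TGI: concentration producing complete growth inhibition.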

Experiments:
Assay in all cases: DTP human tumour cell line panel, 48 h
A498 renal = system: A498 renal
KM12 colon = system: KM12 colon
NCI-H226 lung = system: NCI-H226 lung
NCI-H522 lung = system: NCI-H522 lung
OVCAR-3 ovarian = system: OVCAR-3 ovarian
SF-268 CNS = system: SF-268 CNS
SF-295 CNS = system: SF-295 CNS
SF-539 CNS = system: SF-539 CNS
SK-MEL-28 melanoma = system: SK-MEL-28 melanoma
MCF7 breast = system: MCF7 breast

| Compound | TGI (A498 renal) [µM] | TGI (KM12 colon) [µM] | TGI (NCI-H226 lung) [µM] | TGI (NCI-H522 lung) | TGI (OVCAR-3 ovarian) [µM] | TGI (SF-268 CNS) [µM] | TGI (SF-295 CNS) [µM] | TGI (SF-539 CNS) [µM] | TGI (SK-MEL-28 melanoma) [µM] | GI50 (A498 renal) [µM] | GI50 (KM12 colon) [µM] | GI50 (MCF7 breast) [µM] | TGI (MCF7 breast) [µM] | GI50 (NCI-H226 lung) [µM] | GI50 (NCI-H522 lung) [µM] | GI50 (OVCAR-3 ovarian) [µM] | GI50 (SF-268 CNS) [µM] | GI50 (SF-539 CNS) [µM] | GI50 (SK-MEL-28 melanoma) [µM] | GI50 (SF-295 CNS) [µM] |
| --- | --- | --- | --- | --- | --- | --- | --- | --- | --- | --- | --- | --- | --- | --- | --- | --- | --- | --- | --- | --- |
| CCOC(=N)CC(=O)Nc1cccc(Cl)c1 | > 100 | > 100 | > 100 | > 100 µM | > 100 | > 100 | > 100 | > 100 | > 100 | – | – | – | – | – | – | – | – | – | – | – |
| CNS(=O)(=O)NN(C)S(=O)(=O)c1ccc2ccccc2c1 | > 100 | > 100 | > 100 | > 100 µM | – | – | > 100 | > 100 | – | – | – | – | – | – | – | – | – | – | – | – |
| Cc1cccc(N2C(=O)C(=O)C(c3nc4ccccc4s3)/C(=N/NC(=S)NN)C2=O)c1C (stereo not given) | > 100 | > 100 | > 100 | > 100 µM | > 100 | > 100 | > 100 | > 100 | > 100 | – | – | – | – | – | – | – | – | – | – | – |
| COc1ccc2c(c1)CC1c3c(ccc(OC)c3O)CC2N1C (stereo not given) | > 100 | > 89.8 | > 100 | 37.9 µM | > 100 | > 100 | 47.1 | 54.6 | 43.8 | – | – | – | – | – | – | – | – | – | – | – |
| COc1cc(-c2cc(/C=C/C(=O)c3ccc(Cl)c(Cl)c3)[nH]n2)cc(OC)c1OC | 43 | > 100 | > 100 | 3.04 µM | 37.8 | 63.3 | – | 18.7 | 66 | 5.89 | 3.37 | 1.8 | > 100 | 18.6 | 1.33 | 6.99 | 13.7 | 4.31 | 18.1 | – |
| C/C=C/[C@H]1O[C@@H]2C(=C[C@H]1O)C(=O)O[C@H]2C | – | > 78 | 48.1 | > 42.9 µM | 39.2 | > 95 | > 100 | 3.38 | 12.1 | – | 33.3 | 31.2 | 98 | 18.4 | 5.02 | 18 | 30.1 | – | 0.786 | > 82.1 |
| OCCNCCCOc1ccc2ncnc(Nc3ccc(Oc4cccc(C(F)(F)F)c4)c(Cl)c3)c2c1 | 5.29 | 3.26 | – | – | 2.92 | – | 3.24 | 3.07 | 3.21 | 1.72 | 1.77 | – | – | – | – | 1.5 | – | 1.64 | 1.75 | 1.79 |
| COc1ccc2c(c1)[n+]([O-])c(-c1ccc(C)cc1)c(N)[n+]2[O-] | > 100 | > 100 | > 100 | 30.3 µM | > 100 | – | > 100 | > 100 | > 100 | – | – | – | – | – | – | – | – | – | – | – |
| COc1c(-c2ccc(O)c(O)c2)oc2c(O)c(O)cc(O)c2c1=O | > 100 | > 100 | > 100 | > 100 µM | > 100 | – | > 100 | > 100 | > 100 | – | – | – | 76.1 | – | – | – | – | – | – | – |
| Cc1ccc(C2=C(c3ccccc3)C(c3ccccc3)Oc3ccc(C)cc32)cc1 (stereo not given) | 5.32 | 23.6 | 37.9 | 5.63 µM | 32.7 | 38.7 | 13.8 | 20 | – | 1.56 | 5.5 | 3.33 | 13.1 | 15.8 | 2.28 | 12.4 | 13.2 | 6.29 | – | 3.66 |
| Oc1ccc(CCNCc2cc3c(cc2Br)OCO3)cc1 | > 100 | – | > 100 | > 100 µM | > 100 | > 100 | > 100 | > 100 | 98.2 | – | – | – | > 100 | – | – | – | – | – | – | – |
| COc1ccc(-c2cc(-c3cc(Cl)cc(Br)c3O)[nH]c(=O)n2)cc1 | 31.4 | 41.3 | 33.4 | 30 µM | 31.5 | 50 | 32.7 | 28.8 | 44.7 | – | – | – | – | – | – | – | – | – | – | – |
| Cc1cc(N2CCCC2)nc(NCc2cc(Nc3ccnc4cc(Cl)ccc34)ccc2F)n1 | 2.54 | 3.01 | – | 3.09 µM | 3.06 | 3.14 | 2.53 | 3.11 | 3.48 | 1.04 | 1.52 | 0.216 | 1.07 | – | 1.41 | 1.57 | 1.36 | 1.55 | 1.78 | 1.16 |
| C/C(=N\NC(=S)N1CC2CCC(CC2)C1)c1cccc(C)n1 | 13.2 | 14.8 | 7.73 | 0.343 µM and 1.5 µM | 9.75 | 13 | 13.1 | 2.58 | 17.7 | – | – | – | – | – | 0.232 | 0.00014 | – | 0.464 | – | – |
| CCOC(=O)C1=C(C)N(NC(N)=O)C(C)(O)C12CCOC2=O (stereo not given) | > 100 | > 100 | > 100 | > 100 µM | > 100 | > 100 | > 100 | > 100 | > 100 | – | – | – | – | – | – | – | – | – | – | – |
| CC(=O)C1=C(C)N(C)C2(O)C=CC(=O)C3=C(O)c4ccccc4C(=O)C312 (stereo not given) | 15.2 | – | 31.9 | > 100 µM | – | 23.6 | 19.6 | 6.55 | 47.3 | 0.0524 | – | 12.2 | 36.1 | 16 | 23.8 | – | 9.29 | 2.76 | 19.4 | 5.03 |
| O=[N+]([O-])c1ccc(/C=C/c2csnn2)cc1 | – | > 100 | > 100 | > 100 µM | > 100 | > 100 | > 100 | > 100 | > 100 | – | – | – | – | – | – | – | – | – | – | – |
| Cc1ccc(NC(=S)SCCC(=O)O)cc1 | > 100 | > 100 | > 100 | > 100 µM | > 100 | > 100 | > 100 | > 100 | > 100 | – | – | – | – | – | – | – | – | – | – | – |
